Reference: patent publication US20230059107A1, “STABLE TOPICAL COMPOSITIONS OF FENOLDOPAM” (TARO PHARMACEUTICAL INDUSTRIES LTD., priority 2019, published 2023)
Like-named read-outs stand apart in the source and are kept apart here. Marks after values point to notes of the source that are not given here.

Legend:
[1] = system: psoriatic xenotransplants (normal human skin grafted, psoriatic patient T-cell injected); assay: Human skin xenotransplant model of psoriasis in beige-SCID mice: histological evaluation and epidermal thickness; format: in vivo; settings: for Mean epidermal thickness: mean of the group
Experimental: The efficacy of the topical stable Fenoldopam compositions developed according to the current disclosure for the treatment of psoriasis is evaluated in a human skin xenotransplant model in mice. Human skin xenotransplant models are optimally suited for performing preclinical assays that explore novel anti-psoriatic agents/treatment strategies before initiating clinical trials. The purpose of this study is to evaluate the effectiveness of Fenoldopam mesylate formulations on the histological parameters of psoriasis in the human T-cell-driven model of psoriasis.
The patients included in the study have classic plaque psoriasis, and were not treated for the disease. Normal skin from one healthy volunteer is obtained for grafting.
Healthy human skin pieces with a width of 0.4 mm and surface area of 1.5×1.5 cm are provided from residual skin of routine plastic surgery procedures from the Plastic Surgery Department of the Rambam Health Care Campus, Haifa, Israel. In addition, 20 mL blood samples were taken from the psoriatic patients.
The normal healthy human donor skin is transplanted onto the Beige-severe combined immuno-deficient mice (SCID) (weight ˜20 g).
The mice are divided into several treatment groups. Mice of each group receive activated allogeneic T-cells expressing high levels of NK cells receptors from the psoriatic donor.
Peripheral Blood Mononuclear Cells (PBMCs) from the psoriatic patients' blood are isolated and cultured in the presence of a high dose of IL-2 (100 U/mL of media) for 14 days to activate allogeneic T-cells expressing high levels of NK cells receptors.
Four weeks following the engraftment, each mouse is injected with 1×10^7 activated allogeneic IL2-enriched PBMCS from psoriatic patients (1×10^7 cells injected/mouse). Cells from different psoriasis patients are distributed equally between treatment groups. Each patient is represented in each treatment group.
Two weeks following the injections, the mice are divided randomly and treated daily for 14 constitutive days with the different topical formulations.
(§1) Fourteen days after starting the treatment (four weeks following the injections), blood samples are taken and the skin is harvested. The grafts are analyzed histologically and immunohistochemically for psoriatic parameters.
In this model, a psoriasis-like phenotype is induced in normal human skin grafted onto beige-severe combined immunodeficient mice by intradermal injection of natural killer/T-cells derived from psoriatic patients (Gilhar et al., J Invest Dermatol. 2002 Aug;119(2):384-91.).
The purpose of these further experiments was to verify the therapeutic effect of FMT and compare the therapeutic effects of two doses (1% versus 2%) of two different formulations (cream versus gel).
In order to address the aim of the experiment, the psoriatic humanized mice were established. 10 psoriatic patients were recruited (seven males and three females), mean age 44 years, ranging from 22 to 61 years for testing. All patients had classic plaque psoriasis. None of the patients had been treated. Normal skin from one healthy volunteer was obtained for grafting.
The experiment comprised 72 mice divided into eight groups (Table 10). All of the mice were injected with T-cells expressing NK receptors obtained from psoriatic patients according to the protocol. Thereafter, the mice were separated as follows: Group 1: non-treated control; Group 2: dexamethasone; Group 3: FMT Gel 1%; Group 4: FMT Gel 2%; Group 5: Gel (vehicle); Group 6: FMT Cream 1%; Group 7: FMT Cream 2%; and Group 8: Cream (vehicle). All groups were treated from day 14 until day 28 post T-cells injection.

[2] = system: inflammatory markers of the psoriatic xenotransplants (Ki-67, HLA-DR, CD8, CD4, IL-17); assay: Human skin xenotransplant model of psoriasis: immunohistochemical staining for Ki-67, HLA-DR, CD8, CD4 and IL-17; format: in vivo
Experimental: as §1
We then stained skin sections derived from the various human xenotransplants for Ki-67 and HLA-DR: the first, a marker of cellular hyperproliferation and the second, for immune stimulation. Strong expression of Ki-67 was observed along the lower part of the epidermis in all control and vehicle groups and in the non-responders FMT xenotransplants. […] However, weak or absent HLA-DR expression was observed along the epidermis in the responders transplants treated with FMT.
Negative expression—no staining Mild—minor level of cell infiltrates of positive cells along the dermis Dense—intense level of cell infiltrates of positive cells along the dermis
To characterize the inflammatory infiltrate in the skin, we examined the expression of CD8, CD4 and IL-17+cells, which mark T lymphocytes (FIG. 1 and Tables 15, 16).
Negative expression—no staining Mild—minor level of cell infiltrates of positive cells along the dermis Dense—intense level of cell infiltrates of CD8+, CD4+IL17+positive cells along the dermis

[3] = cited from earlier work
[4] = topical bid, day 14 until day 28 post T-cells injection
[5] = intense level of cell infiltrates
[6] = minor level of cell infiltrates

With `C[C@@H]1C[C@H]2[C@@H]3CCC4=CC(=O)C=C[C@]4(C)[C@@]3(F)[C@@H](O)C[C@]2(C)[C@@]1(O)C(=O)CO` [Dexamethasone] the Epidermal thickness ([1]; Donor 1) was 338 μm, the Epidermal thickness ([1]; Donor 2) was 280 μm and the Epidermal thickness ([1]; Donor 3) was 290 μm. For the same compound, the Epidermal thickness ([1]; Donor 4) was 300 μm, the Epidermal thickness ([1]; Donor 5) was 305 μm and the Epidermal thickness ([1]; Donor 6) was 260 μm. The Mean epidermal thickness ([1]; listed as Dexa) was 295* μm, the Mean epidermal thickness ([1]; listed as dexamethasone) was 295 ±26 μm and the “Complete Recovery (grafts/total)” value [1, 4] was 5/6. For the same compound, the “Partial Recovery (grafts/total)” value [1, 4] was 1/6, the “Psoriatic Features (grafts/total)” value [1, 4] was 0/6 and the “Epidermal HLA-DR Expression: Diffuse (grafts/total)” value ([2]; Diffuse—more than 50% of the epidermal area) was 0/6. For the same compound, the “Epidermal HLA-DR Expression: Focal (grafts/total)” value ([2]; Focal—less than 50% of the epidermal area) was 1/6, the “CD4 Expression: Dense” value ([2]; Non responders grafts) was 0/6 and the “CD4 Expression: Negative/Mild” value ([2]; Non responders grafts) was 0/6. The “CD8 Expression: Dense” value ([2]; Non responders grafts) was 0/6, the “CD8 Expression: Negative/Mild” value ([2]; Non responders grafts) was 0/6 and the “Dermal HLA-DR Expression: Dense” value ([2]; Non responders grafts) was 0/6. For the same compound, the “Dermal HLA-DR Expression: Negative/Mild” value ([2]; Non responders grafts) was 0/6, the “IL-17 Expression: Dense” value ([2]; Non responders grafts) was 0/6 and the “IL-17 Expression: Negative/Mild” value ([2]; Non responders grafts) was 0/6. The “CD4 Expression: Dense” value ([2]; Responders grafts) was 0/6, the “CD4 Expression: Negative/Mild” value ([2]; Responders grafts) was 6/6 and the “CD8 Expression: Dense” value ([2]; Responders grafts) was 0/6. For the same compound, the “CD8 Expression: Negative/Mild” value ([2]; Responders grafts) was 6/6, the “Dermal HLA-DR Expression: Dense” value ([2]; Responders grafts) was 0/6 and the “Dermal HLA-DR Expression: Negative/Mild” value ([2]; Responders grafts) was 6/6. The “IL-17 Expression: Dense” value ([2]; Responders grafts) was 0/6, the “IL-17 Expression: Negative/Mild” value ([2]; Responders grafts) was 6/6 and the “Epidermal HLA-DR Expression: Negative (grafts/total)” value ([2]; in vivo) was 5/6. For the same compound, the “CD4 positive cells along the dermis: Dense” value [2, 5] was 0/10, the “CD8 positive cells along the dermis: Dense” value [2, 5] was 0/10 and the “IL-17 positive cells along the dermis: Dense” value [2, 5] was 0/10. The “Dermal HLA-DR Expression: Dense (grafts/total)” value ([2]; intense level of cell infiltrates of positive cells along the dermis) was 0/6, the “CD4 positive cells along the dermis: Mild” value [2, 6] was 2/6 and the “CD8 positive cells along the dermis: Mild” value [2, 6] was 1/6. The “IL-17 positive cells along the dermis: Mild” value [2, 6] was 1/6, the “Dermal HLA-DR Expression: Mild (grafts/total)” value ([2]; minor level of cell infiltrates of positive cells along the dermis) was 2/6 and the “CD4 positive cells along the dermis: Negative” value ([2]; no staining) was 4/6. The “CD8 positive cells along the dermis: Negative” value ([2]; no staining) was 5/6, the “Dermal HLA-DR Expression: Negative (grafts/total)” value ([2]; no staining) was 4/6 and the “IL-17 positive cells along the dermis: Negative” value ([2]; no staining) was 5/6.
For `CS(=O)(=O)O.Oc1ccc(C2CNCCc3c2cc(O)c(O)c3Cl)cc1` (centres unmarked) [Fenoldopam mesylate, 6-chloro-2,3,4,5-tetrahydro-1-(4-hydroxyphenyl)-1H-3-benzazepine-7,8-diol, methanesulfonate], the solubility ([3]; in propylene glycol) is listed as “soluble” and the solubility ([3]; in water, ethanol and methanol) is listed as “sparingly soluble”.
